Assay results from US9187464B2, “TRPV4 antagonists” (GlaxoSmithKline Intellectual Property (No. 2) Limited, priority 2011, dated 2015).

Target: T1, human TRPV4 (Homo sapiens, UniProt Q9HBA0)
T1 construct: expressed in transfected cells; host or cells: HEK-293-MSR-II cells transduced with 1% BacMam virus
Experiment: Ligand-gated assay (Fluo4 calcium, FLIPR; inhibition of agonist-induced activation)
Type: cell-based
Conditions: HEK-293-MSR-II cells transduced with BacMam human TRPV4; agonist at EC80
Summary of the method: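 Agonist (EC80) response read on FLIPR as Fluo-4 (2 uM) fluorescence after 10-min room-temperature compound exposure in HBSS/HEPES pH 7.4 with 0.01% Chaps. Cells: HEK-293-MSR-II expressing human TRPV4 via BacMam; output is IC50 of inhibition.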

T1 sequence (Q9HBA0 whole entry): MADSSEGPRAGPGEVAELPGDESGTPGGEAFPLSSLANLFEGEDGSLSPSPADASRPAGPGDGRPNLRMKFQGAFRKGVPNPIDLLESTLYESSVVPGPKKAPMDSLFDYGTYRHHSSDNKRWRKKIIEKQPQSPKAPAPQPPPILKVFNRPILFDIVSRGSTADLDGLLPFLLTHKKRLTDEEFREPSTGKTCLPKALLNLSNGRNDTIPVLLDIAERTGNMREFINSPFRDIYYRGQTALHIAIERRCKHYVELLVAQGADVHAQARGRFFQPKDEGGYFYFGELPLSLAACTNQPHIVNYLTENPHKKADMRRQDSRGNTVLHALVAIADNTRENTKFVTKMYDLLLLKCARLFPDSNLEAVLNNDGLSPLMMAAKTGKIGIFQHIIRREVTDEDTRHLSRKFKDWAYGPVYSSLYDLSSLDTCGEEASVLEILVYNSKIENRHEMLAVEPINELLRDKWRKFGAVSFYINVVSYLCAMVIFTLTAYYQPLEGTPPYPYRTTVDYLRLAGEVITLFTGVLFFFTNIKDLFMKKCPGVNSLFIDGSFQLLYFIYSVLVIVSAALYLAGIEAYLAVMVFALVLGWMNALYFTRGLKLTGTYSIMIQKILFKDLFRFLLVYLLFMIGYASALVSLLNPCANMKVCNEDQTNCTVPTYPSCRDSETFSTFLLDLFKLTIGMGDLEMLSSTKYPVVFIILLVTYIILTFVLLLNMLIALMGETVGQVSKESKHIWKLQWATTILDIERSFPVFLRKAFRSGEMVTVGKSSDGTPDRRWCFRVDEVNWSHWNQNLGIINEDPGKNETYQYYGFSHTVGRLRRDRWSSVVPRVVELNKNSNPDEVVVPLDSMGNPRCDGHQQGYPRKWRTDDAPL

| IC50 [nM] | Compound |
| --- | --- |
| 0.1 to 10 | Cc1cc(Cl)ncc1N1C[C@@]2(CCC[C@H](Cn3cnc4ccc(C#N)cc43)C2)OC1=O [Example 120, 1-(((5S,7S)-3-(6-chloro-4-methylpyridin-3-yl)-2-oxo-1-oxa-3-azaspiro[4.5]decan-7-yl)methyl)-1H-benzo[d]imidazole-6-carbonitrile] |
| 0.1 to 10 | Cc1cc(Cl)cnc1N1C[C@@]2(CCC[C@](C)(Cn3cnc4ccc(C#N)cc43)C2)OC1=O [Example 121, 1-(((5S,7S)-3-(5-chloro-3-methylpyridin-2-yl)-7-methyl-2-oxo-1-oxa-3-azaspiro[4.5]decan-7-yl)methyl)-1H-benzo[d]imidazole-6-carbonitrile] |
| 0.1 to 10 | COc1cc(Cl)ncc1N1C[C@@]2(CCC[C@](C)(Cn3cnc4ccc(C#N)cc43)C2)OC1=O [Example 122, 1-(((5S,7S)-3-(6-chloro-4-methoxypyridin-3-yl)-7-methyl-2-oxo-1-oxa-3-azaspiro[4.5]decan-7-yl)methyl)-1H-benzo[d]imidazole-6-carbonitrile] |
| 0.1 to 10 | COc1cc(Cl)ncc1N1C[C@@]2(CCC[C@H](Cn3cnc4ccc(C#N)cc43)C2)OC1=O [Example 123, 1-(((5S,7S)-3-(6-chloro-4-methoxypyridin-3-yl)-2-oxo-1-oxa-3-azaspiro[4.5]decan-7-yl)methyl)-1H-benzo[d]imidazole-6-carbonitrile] |
| 10 to 50 | Cc1nc(C(F)(F)F)ncc1N1C[C@@]2(CCC[C@H](Cn3cnc4ccc(C#N)cc43)C2)OC1=O [Example 124, 1-(((5S,7S)-3-(4-methyl-2-(trifluoromethyl)pyrimidin-5-yl)-2-oxo-1-oxa-3-azaspiro[4.5]decan-7-yl)methyl)-1H-benzo[d]imidazole-6-carbonitrile] |
| 0.1 to 10 | CCOc1cc(C)c(N2C[C@@]3(CCC[C@H](Cn4cnc5cc(F)c(C#N)cc54)C3)OC2=O)cn1 [Example 125, 1-(((5S,7S)-3-(6-ethoxy-4-methylpyridin-3-yl)-2-oxo-1-oxa-3-azaspiro[4.5]decan-7-yl)methyl)-5-fluoro-1H-benzo[d]imidazole-6-carbonitrile] |
| 0.1 to 10 | COc1nc(C)ccc1N1C[C@@]2(CCC[C@](C)(Cn3cnc4ccc(C#N)cc43)C2)OC1=O [Example 126, 1-(((5S,7S)-3-(2-methoxy-6-methylpyridin-3-yl)-7-methyl-2-oxo-1-oxa-3-azaspiro[4.5]decan-7-yl)methyl)-1H-benzo[d]imidazole-6-carbonitrile] |
| 10 to 50 | COc1cc(C)cnc1N1C[C@@]2(CCC[C@](C)(Cn3cnc4ccc(C#N)cc43)C2)OC1=O [Example 127, 1-(((5S,7S)-3-(3-methoxy-5-methylpyridin-2-yl)-7-methyl-2-oxo-1-oxa-3-azaspiro[4.5]decan-7-yl)methyl)-1H-benzo[d]imidazole-6-carbonitrile] |
| 0.1 to 10 | Cc1cnc(N2C[C@@]3(CCC[C@](C)(Cn4cnc5ccc(C#N)cc54)C3)OC2=O)c(Cl)c1 [Example 128, 1-(((5S,7S)-3-(3-chloro-5-methylpyridin-2-yl)-7-methyl-2-oxo-1-oxa-3-azaspiro[4.5]decan-7-yl)methyl)-1H-benzo[d]imidazole-6-carbonitrile] |
| 10 to 50 | CCc1cccnc1N1C[C@@]2(CCC[C@](C)(Cn3cnc4ccc(C#N)cc43)C2)OC1=O [Example 129, 1-(((5S,7S)-3-(3-ethylpyridin-2-yl)-7-methyl-2-oxo-1-oxa-3-azaspiro[4.5]decan-7-yl)methyl)-1H-benzo[d]imidazole-6-carbonitrile] |
| 50 to 500 | Cc1cnc(N2C[C@@]3(CCC[C@](C)(Cn4cnc5ccc(C#N)cc54)C3)OC2=O)c(C)n1 [Example 130, 1-(((5S,7S)-3-(3,5-dimethylpyrazin-2-yl)-7-methyl-2-oxo-1-oxa-3-azaspiro[4.5]decan-7-yl)methyl)-1H-benzo[d]imidazole-6-carbonitrile] |
| 50 to 500 | Cc1nc(C(F)(F)F)cnc1N1C[C@@]2(CCC[C@H](Cn3cnc4ccc(C#N)cc43)C2)OC1=O [Example 131, 1-(((5S,7S)-3-(3-methyl-5-(trifluoromethyl)pyrazin-2-yl)-2-oxo-1-oxa-3-azaspiro[4.5]decan-7-yl)methyl)-1H-benzo[d]imidazole-6-carbonitrile] |
| 0.1 to 10 | COc1ncc(N2C[C@@]3(CCC[C@](C)(Cn4cnc5ccc(C#N)cc54)C3)OC2=O)cc1C [Example 132, 1-(((5S,7S)-3-(6-methoxy-5-methylpyridin-3-yl)-7-methyl-2-oxo-1-oxa-3-azaspiro[4.5]decan-7-yl)methyl)-1H-benzo[d]imidazole-6-carbonitrile] |
| 0.1 to 10 | CC(C)(C#N)c1ccc(N2C[C@@]3(CCC[C@](C)(Cn4cnc5ccc(C#N)cc54)C3)OC2=O)cn1 [Example 133, 1-(((5S,7S)-3-(6-(2-cyanopropan-2-yl)pyridin-3-yl)-7-methyl-2-oxo-1-oxa-3-azaspiro[4.5]decan-7-yl)methyl]-1H-benzo[d]imidazole-6-carbonitrile] |
| 0.1 to 10 | CC(C)(C)c1ncc(N2C[C@@]3(CCC[C@](C)(Cn4cnc5ccc(C#N)cc54)C3)OC2=O)cn1 [Example 134, 1-(((5S,7S)-3-(2-(tert-butyl)pyrimidin-5-yl)-7-methyl-2-oxo-1-oxa-3-azaspiro[4.5]decan-7-yl)methyl)-1H-benzo[d]imidazole-6-carbonitrile] |
| 50 to 500 | COc1ccc(N2C[C@@]3(CCC[C@](C)(Cn4cnc5ccc(C#N)cc54)C3)OC2=O)nc1 [Example 135, 1-({(5S,7S)-7-methyl-3-[5-(methyloxy)-2-pyridinyl]-2-oxo-1-oxa-3-azaspiro[4.5]dec-7-yl}methyl)-1H-benzimidazole-6-carbonitrile] |
| 50 to 500 | CCOc1ccc(N2C[C@@]3(CCC[C@](C)(Cn4cnc5ccc(C#N)cc54)C3)OC2=O)nn1 [Example 136, 1-({(5S,7S)-3-[6-(ethyloxy)-3-pyridazinyl]-7-methyl-2-oxo-1-oxa-3-azaspiro[4.5]dec-7-yl}methyl)-1H-benzimidazole-6-carbonitrile] |
| 10 to 50 | C[C@]1(Cn2cnc3ccc(C#N)cc32)CCC[C@@]2(CN(c3ncccc3Cl)C(=O)O2)C1 [Example 137, 1-{[(5S,7S)-3-(3-chloro-2-pyridinyl)-7-methyl-2-oxo-1-oxa-3-azaspiro[4.5]dec-7-yl]methyl}-1H-benzimidazole-6-carbonitrile] |
| 50 to 500 | COc1cccnc1N1C[C@@]2(CCC[C@](C)(Cn3cnc4ccc(C#N)cc43)C2)OC1=O [Example 138, 1-({(5S,7S)-7-methyl-3-[3-(methyloxy)-2-pyridinyl]-2-oxo-1-oxa-3-azaspiro[4.5]dec-7-yl}methyl)-1H-benzimidazole-6-carbonitrile] |
| 0.1 to 10 | C[C@]1(Cn2cnc3ccc(C#N)cc32)CCC[C@@]2(CN(c3ccc(C(F)(F)F)nc3)C(=O)O2)C1 [Example 139, 1-({(5S,7S)-7-methyl-2-oxo-3-[6-(trifluoromethyl)-3-pyridinyl]-1-oxa-3-azaspiro[4.5]dec-7-yl}methyl)-1H-benzimidazole-6-carbonitrile] |
| 50 to 500 | Cc1ccc(N2C[C@@]3(CCC[C@](C)(Cn4cnc5ccc(C#N)cc54)C3)OC2=O)cn1 [Example 140, 1-(((5S,7S)-7-methyl-3-(6-methylpyridin-3-yl)-2-oxo-1-oxa-3-azaspiro[4.5]decan-7-yl)methyl)-1H-benzo[d]imidazole-6-carbonitrile] |
